Measurements as given in publication PMC8700777, “Identification of the EdcR Estrogen-Dependent Repressor in Caenibius tardaugens NBRC 16725: Construction of a Cellular Estradiol Biosensor” (Genes, 2021).

What was measured:
[1] = test system: EdcR (TetR-like repressor, EGO55_13520); assay: EdcR-dependent Pb-msf-gfp reporter de-repression in E. coli DH10B; assay type: cell-based, Escherichia coli DH10B
[2] = test system: EdcR (TetR-like repressor, EGO55_13520); assay: EdcR-dependent Pb-msf-gfp reporter de-repression in E. coli DH10B (with RT-PCR in C. tardaugens ΔedcA); assay type: cell-based, Escherichia coli DH10B

Row | SMILES | EC50 [1] [nM] | EC50 [2] [nM]
1 | C[C@]12CC[C@@H]3c4ccc(O)cc4CC[C@H]3[C@@H]1CC[C@@H]2O [E2, 17β-estradiol] | 3320 | 
2 | C[C@]12CC[C@@H]3c4ccc(O)cc4CC[C@H]3[C@@H]1CCC2=O [E1, estrone] |  | 1380
